Where a SMILES comes first, the peptide text is derived from it.
System: leukemia (K562) cell line
Assay: Cell viability (MTT assay)
Type: cell-based, human
Conditions: 100 µM, 24 hrs exposure, absorbance 540 nm, cutoff 20%, mean of four independent experiments
Method: Dulbecco’s modified Eagle medium (DMEM) supplemented with 10% fetal bovine serum (FBS) and 1% penicillin (10.000 IU/mL)/streptomycin (50 mg/mL) was used to grow the […] human leukemia cell line (K562) in flasks at 37°C in a humidified environment of 5% CO2/air.
K562 cells were cultivated in DMEM with FBS 10% and penicillin–streptomycin 1%, and they were incubated at 37°C with 5% CO2 present. Using the MTT assay, the cytotoxicity of the three NCRs was evaluated. K562 cells were grown at a density of 3–4 × 10^4 cells per well in a 96-well plate and allowed to adhere for 24 hrs. […] Using a microplate reader, absorbance was measured at 540 nm. […]
Fig 7 The toxicity % of the NCRs (NCR094 and NCR992) toward leukemia cell line (K562). […] Absorbance was read at 540, and the toxicity% was calculated from four independent experiments, and the results were represented as average of the % toxicity and standard deviations from four independent experiments. […]
The cells were treated with were treated with 10-fold concentration (100, 10, 1, 0 μM) of NCR992.1 After 24 hrs exposure, MTT were added, and cells were incubated for 4 hrs. […] Absorbance was read at 540 and the toxicity% were calculated and the results were presented as means and error bars were ± SD values from four independent experiments.

CC[C@H](C)[C@H](NC(=O)[C@H](CCSC)NC(=O)CNC(=O)[C@H](Cc1ccccc1)NC(=O)[C@H](CCC(=O)O)NC(=O)[C@H](CS)NC(=O)[C@@H](N)CCSC)C(=O)N[C@@H](CCCNC(=N)N)C(=O)N[C@@H](CCCNC(=N)N)C(=O)N[C@@H](CS)C(=O)N[C@H](C(=O)N[C@@H](CO)C(=O)N[C@@H](Cc1ccc(O)cc1)C(=O)N[C@@H](CCCCN)C(=O)N[C@@H](CS)C(=O)N[C@@H](CCC(N)=O)C(=O)N[C@@H](CS)C(=O)N[C@@H](Cc1c[nH]cn1)C(=O)N[C@@H](CCC(=O)O)C(=O)N[C@@H](C)C(=O)N[C@@H](Cc1ccc(O)cc1)C(=O)O)[C@@H](C)CC [NCR992] (H-MCEFGMIRRCISYKCQCHEAY-OH; N-terminus and C-terminus assumed)
toxicity % toward K562: 8.54%

From PMC10845954, “Novel antimicrobial peptides identified in legume plant, Medicago truncatula” (Microbiology Spectrum, 2024)
